Measured values published in patent EP0110746A1, “Derivatives of 3-amino-1-phenoxy-2-propanol, their therapeutical use and process for their preparation” (LABORATOIRE L. LAFON Société anonyme dite:, priority 1982, dated 1984).

How the values were obtained:
[1] = Solubility in water; type: physicochemical; details: read-out: soluble dans l'eau
Protocol: La base libre ainsi obtenue est traitée au reflux dans de l'éthanol anhydre par de l'éthanol chlorhydrique. Il se forme un précipité que l'on isole pour recueillir 36,3 g (rendement = 69,75%) de CRL 41 058 qui se présente sous la forme d'une poudre légèrement beige soluble à 12,5 g/1 dans l'eau. Finst (Köfler) ^= 216°C.

[2] = tested on: homme; experiment: Clinical trials in man; type: in vivo; details: daily dose 40 à 50 mg in 2 à 3 intakes, 2 à 6 semaines
[3] = tested on: souris mâle; experiment: in vivo; details: mouse, ip
Protocol: (§1) On a résumé ci-après une partie des essais qui ont été entrepris avec le CRL 41 058 (produit de l'exemple 1). Dans ces essais et sauf indications contraires, le CRL 41 058, en suspension dans une solution aqueuse de gomme arabique pour des concentrations supérieures ou égales à 3 g/1, et en solution dans de l'eau distillée pour des concentrations inférieures à 3g/l, a été administré par voie intrapéritonéale sous un volume de 20 ml/kg chez la souris mâle et de 5 ml/kg chez le rat mâle.
(§2) Chez la souris màle par voie I.P., la DL-0 (dose maximale non mortelle) est supérieure à 64 mg/kg, et la DL-30 (dose à laquelle 30% des animaux meurent) est de l'ordre de 128 mg/kg. Le CRL 41 058 est moins toxique que le chlorhydrate de 1-(3,5-diméthoxy- phénoxy)-3-tertiobutylamino-2-propanol qui a une DL-50 par voie I.P. chez la souris mâle de l'ordre de 73 mg/kg.

[4] = tested on: tachycardie induite par isoprénaline; experiment: Anaesthetised rat: determination of the effective β-blocking dose; type: in vivo; details: iv, I.V., 0,03 à 0,3 µg/kg I.V. isoprénaline, read-out: dose qui bloque la tachycardie induite par isoprénaline
Protocol: Des rats normotendus sont anesthésiés au pentobarbital (75 mg/kg I.P.) et atropinés (1 mg/kg I.P.) On mesure leur pression artérielle carotidienne, leur fréquence cardiaque par intégration de la pression artérielle. Une veine jugulaire […] pour les injections. Si besoin est, l'anesthésie est entretenue par injection sous-cutanée de pentobarbital. 3 rats reçoivent le CRL 41 058 par voie intraveineuse, aux doses successives de 0,3 mg/kg, 1 mg/kg,3 mg/kg, 10 mg/kg et, éventuellement, 30 mg/kg. On détermine la dose qui bloque […] induite par 0,03 à 0,3μg/kg […] (dose nécessaire pour obtenir une augmentation de fréquence cardiaque de 30 à 50 bat/min). On trouve que la dose en question est de 1 mg/kg I.V.

[5] = tested on: rat mâle; experiment: Global behaviour and reactivities, rat; type: in vivo
Protocol: as §1

[6] = tested on: souris mâle; experiment: Global behaviour and reactivities, mouse; type: in vivo
Protocol: as §1

[7] = tested on: rats génétiquement hypertendus; experiment: Awake genetically hypertensive rat: arterial pressure and heart rate; type: in vivo; details: 20 mg/kg V.B.
Protocol: 6 rats génétiquement hypertendus, à cathéter artériel fémoral implanté, reçoivent le CRL 41 058 à la dose de 20 mg/kg V.B.

[8] = tested on: oreillettes droites isolées de cobaye; experiment: Isolated guinea pig right atria: pA2 against chronotropic effect of isoprenaline, own inotropic and chronotropic action
Text: Sur ces oreillettes, on évalue aussi l'action inotrope et chronotrope propre du CRL 41 058; aucune moyenne n'a pu être faite, les concentrations et l'ordre d'administration des concentrations étant variables. […] Par contre, si,par exemple, la concentration de 10^-6 M est administrée après des concentrations inférieures qui ont été stimulantes, cette concentration de 10^-6 M est ino et chrono (ce phénomène pourrait laisser supposer une libération de catécholamines).

[9] = tested on: rats normotendus anesthésiés au pentobarbital; experiment: Anaesthetised rat: duration of the β-blocking action; type: in vivo
Protocol: Des rats normotendus sont anesthésiés au pentobarbital (75 mg/kg I.P.) et atropinés (1 mg/kg I.P.) On mesure leur pression artérielle carotidienne, leur fréquence cardiaque par intégration de la pression artérielle. Une veine jugulaire est cathétérisée pour les injections. Si besoin est, l'anesthésie est entretenue par injection sous-cutanée de pentobarbital.
5 rats reçoivent 1 mg/kg de CRL 41 058 par voie I.V. 0n observe que : • - la pression artérielle, diastolique n'est pas modifiée, elle reste voisine de 91 mm Hg; et • - la fréquence cardiaque passe, en 5 min, de 345 à 290 bat/min (soit -16%), la bradycardie maximale est obtenue au temps 20 min : 280 bat/min (soit -19%). Après 90 min, la fréquence cardiaque est à 307 bat/min (soit -11%).

[10] = tested on: chiens anesthésiés au nembutal; experiment: Cardiovascular properties, anaesthetised dog, intraduodenal route; type: in vivo, chien
Protocol: Trois chiens (poids moyen : 13,6 kg) anesthésiés au nembutal reçoivent le CRL 41 058 par voie intraduodénale aux doses successives de 0,5 mg/kg, 1 mg/kg, 2,5 mg/kg, 5 mg/kg et 10 mg/kg. On mesure la pression artérielle (il est rappelé que 1 mm Hg correspond à environ 1,333 x 102 Pa), la fréquence cardiaque, le débit artériel fémoral, le débit artériel vertébral, la température rectale, et on note la coloration de la peau et la coloration de la bile recueillie par cathétérisation du cholédoque après ligature du cystique.

[11] = in vivo; design: species or system souris; details: mouse, ip
Protocol: as §1, §2

COc1cc(OC)c(Cl)c(OCC(O)CNC(C)(C)C)c1 (stereo not shown) [CRL 41 058, chlorhydratede 1-(2-chloro-3,5-diméthoxyphénoxy)-3-tertiobutylamino-2-propanol]
solubility [1]: 12.5 mg/mL | action β-bloquante chez l'homme [2]: confirmé chez l'homme l'intérêt de l'action β-bloquante | DL-0 (dose maximale non mortelle) [3]: > 64 mg/kg | DL-30 (dose à laquelle 30% des animaux meurent) [3]: ~128 mg/kg | minimal effective dose [4]: 1 mg/kg | symptômes ([5]; I.P., 0,25 mg/kg, 1 mg/kg et 4 mg/kg): ne provoquent pas de symptômes nets | symptômes ([5]; I.P., 16 mg/kg): sédation fugace (30 min) et déprime la respiration (chez 2 animaux sur 3) pendant 30 min | symptômes ([6]; I.P., 0,5 mg/kg, 2 mg/kg et 8 mg/kg): ne provoquent pas de symptômes nets | symptômes ([6]; I.P., 32 mg/kg): sédation inconstante (chez 2 animaux sur 3) et fugace (30 min), une dyspnée (chez 2 animaux sur 3) pendant 15 à 30 min | fréquence cardiaque ([7]; 5 min, baseline 382): 322 bat/min | fréquence cardiaque (bradycardie maximale) ([7]; 2 h): 305 bat/min | pression artérielle ([7]; 6 h, baseline 191): 167 mm Hg | fréquence cardiaque ([7]; 7 h): 322 bat/min | fréquence cardiaque ([7]; 24 h): 330 bat/min | pression artérielle ([7]; 24 h): a repris sa valeur témoin | Kb ([8]; Cavia porcellus, 0.25 h, 15 min de contact, mean of 5 atria, read-out: pA2 vis-à-vis de l'effet chronotrope de l'isoprénaline (converted)): 6.17 nM | action inotrope et chronotrope propre ([8]; maximum at first concentration used, 3 x 10^-8 à 10^-6 M): effet ino + et chrono+ | tachycardie à l'isoprénaline ([9]; 0,03 µg/kg I.V. isoprénaline after 1 mg/kg I.V., 5 min): totalement inhibée | tachycardie à l'isoprénaline, part de sa valeur reprise ([9]; 0,03 µg/kg I.V. isoprénaline after 1 mg/kg I.V., 20 min): 50% | tachycardie à l'isoprénaline, part de sa valeur restaurée ([9]; 0,03 µg/kg I.V. isoprénaline after 1 mg/kg I.V., 60 min): 92% | variation de pression artérielle à l'isoprénaline par rapport à la variation témoin ([9]; 0,03 µg/kg I.V. isoprénaline after 1 mg/kg I.V., at 5 min and during 2 h): -69% | variation de pression artérielle à l'isoprénaline ([9]; 0,03 µg/kg I.V. isoprénaline after 1 mg/kg I.V., at 5 min and during 2 h, control -26 mm Hg): +8 mm Hg | fréquence cardiaque, variation ([9]; 1 mg/kg I.V., 5 min): -16% | fréquence cardiaque ([9]; 1 mg/kg I.V., 5 min, baseline 345): 290 bat/min | fréquence cardiaque (bradycardie maximale) ([9]; 1 mg/kg I.V., 20 min): 280 bat/min | fréquence cardiaque, variation (bradycardie maximale) ([9]; 1 mg/kg I.V., 20 min): -19% | fréquence cardiaque ([9]; 1 mg/kg I.V., 90 min): 307 bat/min | fréquence cardiaque, variation ([9]; 1 mg/kg I.V., 90 min): -11% | pression artérielle diastolique ([9]; 1 mg/kg I.V., not modified): ~91 mm Hg | effet tachycardisant de l'isoprénaline ([10]; 100 µg/kg isoprénaline, two dogs, after cumulative dose 19 mg/kg): inférieur à l'effet tachycardisant de 0,3µg/kg d'isoprénaline témoin | minimal effective dose ([10]; Canis lupus familiaris, intraduodenal, voie intraduodénale, successive doses 0,5 to 10 mg/kg, read-out: dose bradycardisante): ≥ 0.5 mg/kg | pression artérielle systolique ([10]; after 1 µg/kg noradrénaline, control 280 mm Hg): 221 mm Hg | pression artérielle diastolique ([10]; after 3 µg/kg isoprénaline, cumulative dose 19 mg/kg, control 48 mm Hg): 119 mm Hg | fréquence cardiaque ([10]; after 3 µg/kg isoprénaline, cumulative dose 19 mg/kg, control 245 bat/min): 110 bat/min | coloration de la peau et celle de la bile ([10]; voie intraduodénale): ne sont pas modifiées | débit artériel vertébral ([10]; voie intraduodénale): n'est pas vasodilatateur vertébral | températures rectale et cutanée ([10]; voie intraduodénale): varient peu | action sur la pression artérielle ([10]; voie intraduodénale, from 0,5 mg/kg): sans aucune action nette | augmentation du débit fémoral ([10]; voie intraduodénale, flow decreases in the two other dogs): présente seulement chez un chien sur trois

COc1cc(OC)cc(OCC(O)CNC(C)(C)C)c1 (stereo not shown) [chlorhydratede 1-(3,5-diméthoxy-phénoxy)-3-tertiobutylamino-2-propanol, reference compound]
LD50 [11]: ~73 mg/kg
